According to ChEMBL document CHEMBL4411307, “N,N'-diaryl-bishydrazones in a biphenyl platform: Broad spectrum antifungal agents” (Eur J Med Chem, 2019):
≈ marks a conversion by molar mass, not a printed value. Calls of active or inactive are those of the source. No cut-off for these calls is given here.

Assays:
[1] = Hemolytic activity in mouse RBC at […] after 1 hr relative to control; format: ADME, cell-based, Erythrocyte; conditions: red blood cells (erythrocytes), read-out: Activity; note: tested at 0.48 µg/mL
[2] = Selectivity index, ratio of CC50 for human A549 cells to MIC for Aspergillus nidulans ATCC 38163; format: toxicity; conditions: read-out: Selectivity Index
Aspergillus nidulans = experiment: Antifungal activity against Aspergillus nidulans ATCC 38163 measured after 48 hrs by CLSI M38-A2 protocol based method; format: functional; conditions: ATCC 38163, 48 h
[3] = Selectivity index, ratio of CC50 for human A549 cells to MIC for fluconazole/ITC-resistant Candida albicans ATCC MYA-1003; format: toxicity; conditions: read-out: Selectivity Index
[4] = Selectivity index, ratio of compound concentration showing <20 to <30% hemolysis in mouse RBC to MIC for fluconazole/ITC-resistant Candida albicans ATCC MYA-1237; format: toxicity; conditions: mouse red blood cells (RBC), read-out: Selectivity Index
A549 = experiment: Cytotoxicity against human A549 cells after 24 hrs by resazurin based assay; format: cell-based; conditions: a549, 24 h
[5] = Selectivity index, ratio of compound concentration showing <20 to <30% hemolysis in mouse RBC to MIC for Candida parapsilosis ATCC 22019; format: toxicity; conditions: mouse red blood cells (RBC), read-out: Selectivity Index
Candida albicans [6] = experiment: Antifungal activity against fluconazole/ITC-resistant Candida albicans ATCC MYA-1237 measured after 48 hrs by CLSI M27-A3 protocol based method; format: functional; conditions: ATCC MYA-1237, 48 h
[7] = Selectivity index, ratio of CC50 for human A549 cells to MIC for fluconazole/ITC-resistant Candida albicans ATCC 10231; format: toxicity; conditions: read-out: Selectivity Index
BEAS-2B = experiment: Cytotoxicity against human BEAS2B cells after 24 hrs by resazurin based assay; format: cell-based
[8] = Hemolytic activity in mouse RBC at 7.8 ug/ml after 1 hr relative to control; format: ADME, cell-based, Erythrocyte; conditions: red blood cells (erythrocytes), read-out: Activity
Candida parapsilosis = experiment: Antifungal activity against Candida parapsilosis ATCC 22019 measured after 48 hrs by CLSI M27-A3 protocol based method; format: functional; conditions: Lodderomyces parapsilosis, ATCC 22019, 48 h
[9] = Selectivity index, ratio of CC50 for human A549 cells to MIC for fluconazole/ITC-resistant Candida albicans ATCC 90819; format: toxicity; conditions: read-out: Selectivity Index
Enterococcus = experiment: Antibacterial activity against vancomycin-resistant Enterococcus; format: functional, organism-based
[10] = Selectivity index, ratio of compound concentration showing <20 to <30% hemolysis in mouse RBC to MIC for fluconazole/ITC-resistant Candida albicans ATCC 10231; format: toxicity; conditions: red blood cells (erythrocytes), read-out: Selectivity Index
[11] = Selectivity index, ratio of compound concentration showing <20 to <30% hemolysis in mouse RBC to MIC for Aspergillus nidulans ATCC 38163; format: toxicity; conditions: mouse red blood cells (RBC), read-out: Selectivity Index
Candida albicans [12] = experiment: Antifungal activity against fluconazole/ITC-resistant Candida albicans ATCC MYA-1003 measured after 48 hrs by CLSI M27-A3 protocol based method; format: functional; conditions: ATCC MYA-1003, 48 h
[13] = Selectivity index, ratio of CC50 for human A549 cells to MIC for fluconazole/ITC-resistant Candida albicans ATCC MYA-1237; format: toxicity; conditions: read-out: Selectivity Index
Aspergillus flavus = experiment: Antifungal activity against Aspergillus flavus ATCC MYA-3631 measured after 48 hrs by CLSI M38-A2 protocol based method; format: functional; conditions: ATCC MYA-3631, 48 h
Candida albicans [14] = experiment: Antifungal activity against fluconazole/ITC-susceptible Candida albicans ATCC MYA-2876 measured after 48 hrs by CLSI M27-A3 protocol based method; format: functional; conditions: ATCC MYA-2876, 48 h
[15] = molecular target: Voltage-gated inwardly rectifying potassium channel KCNH2 (Homo sapiens, UniProt Q12809); experiment: Inhibition of [3H]-dofetilide binding to human ERG expressed in HEK293 cell membranes measured after 1 hr by liquid scintillation counting method
[16] = Selectivity index, ratio of compound concentration showing <20 to <30% hemolysis in mouse RBC to MIC for fluconazole/ITC-susceptible Candida albicans ATCC MYA-2310; format: toxicity; conditions: mouse red blood cells (RBC), read-out: Selectivity Index
[17] = Selectivity index, ratio of compound concentration showing <20 to <30% hemolysis in mouse RBC to MIC for Candida glabrata ATCC 2001; format: toxicity; conditions: mouse red blood cells (RBC), read-out: Selectivity Index
[18] = Hemolytic activity in mouse RBC at […] ug/ml after 1 hr relative to control; format: ADME, cell-based, Erythrocyte; conditions: red blood cells (erythrocytes), read-out: Activity
Pichia kudriavzevii = experiment: Antifungal activity against Candida krusei ATCC 6258 measured after 48 hrs by CLSI M27-A3 protocol based method; format: functional; conditions: ATCC 6258, 48 h
Staphylococcus aureus = experiment: Antibacterial activity against methicillin-resistant Staphylococcus aureus; format: functional, organism-based
[19] = Selectivity index, ratio of CC50 for human A549 cells to MIC for Candida glabrata ATCC 2001; format: toxicity; conditions: read-out: Selectivity Index
[20] = Selectivity index, ratio of compound concentration showing <20 to <30% hemolysis in mouse RBC to MIC for Candida krusei ATCC 6258; format: toxicity; conditions: mouse red blood cells (RBC), read-out: Selectivity Index
Listeria monocytogenes = experiment: Antibacterial activity against Listeria monocytogenes; format: functional, organism-based
[21] = Hemolytic activity in mouse RBC at 1.95 ug/ml after 1 hr relative to control; format: ADME, cell-based, Erythrocyte; conditions: red blood cells (erythrocytes), read-out: Activity
[22] = Hemolytic activity in mouse RBC at 3.9 ug/ml after 1 hr relative to control; format: ADME, cell-based, Erythrocyte; conditions: red blood cells (erythrocytes), read-out: Activity
[23] = Selectivity index, ratio of CC50 for human A549 cells to MIC for Aspergillus terreus ATCC MYA-3633; format: toxicity; conditions: read-out: Selectivity Index
[24] = Selectivity index, ratio of CC50 for human A549 cells to MIC for Aspergillus flavus ATCC MYA-3631; format: toxicity; conditions: read-out: Selectivity Index
Aspergillus terreus = experiment: Antifungal activity against Aspergillus terreus ATCC MYA-3633 measured after 48 hrs by CLSI M38-A2 protocol based method; format: functional; conditions: ATCC MYA-3633, 48 h
[25] = Selectivity index, ratio of CC50 for human A549 cells to MIC for fluconazole/ITC-susceptible Candida albicans ATCC MYA-2876; format: toxicity; conditions: read-out: Selectivity Index
[26] = Selectivity index, ratio of compound concentration showing <20 to <30% hemolysis in mouse RBC to MIC for Aspergillus terreus ATCC MYA-3633; format: toxicity; conditions: mouse red blood cells (RBC), read-out: Selectivity Index
[27] = Selectivity index, ratio of CC50 for human A549 cells to MIC for fluconazole/ITC-resistant Candida albicans ATCC 64124; format: toxicity; conditions: read-out: Selectivity Index
[28] = Selectivity index, ratio of compound concentration showing <20 to <30% hemolysis in mouse RBC to MIC for fluconazole/ITC-resistant Candida albicans ATCC 90819; format: toxicity; conditions: red blood cells (erythrocytes), read-out: Selectivity Index
[29] = Hemolytic activity in mouse RBC at 31.3 ug/ml after 1 hr relative to control; format: ADME, cell-based, Erythrocyte; conditions: red blood cells (erythrocytes), read-out: Activity
[30] = Selectivity index, ratio of compound concentration showing <20 to <30% hemolysis in mouse RBC to MIC for fluconazole/ITC-resistant Candida albicans ATCC MYA-1003; format: toxicity; conditions: mouse red blood cells (RBC), read-out: Selectivity Index
[31] = Selectivity index, ratio of compound concentration showing <20 to <30% hemolysis in mouse RBC to MIC for Aspergillus flavus ATCC MYA-3631; format: toxicity; conditions: mouse red blood cells (RBC), read-out: Selectivity Index
[32] = Selectivity index, ratio of CC50 for human A549 cells to MIC for Candida krusei ATCC 6258; format: toxicity; conditions: read-out: Selectivity Index
[33] = Selectivity index, ratio of CC50 for human A549 cells to MIC for Candida parapsilosis ATCC 22019; format: toxicity; conditions: read-out: Selectivity Index
[34] = Selectivity index, ratio of compound concentration showing <20 to <30% hemolysis in mouse RBC to MIC for fluconazole/ITC-susceptible Candida albicans ATCC MYA-2876; format: toxicity; conditions: red blood cells (erythrocytes), read-out: Selectivity Index
Candida albicans [35] = experiment: Antifungal activity against fluconazole/ITC-resistant Candida albicans ATCC 10231 measured after 48 hrs by CLSI M27-A3 protocol based method; format: functional; conditions: ATCC 10231, 48 h
Candida albicans [36] = experiment: Antifungal activity against fluconazole/ITC-susceptible Candida albicans ATCC MYA-2310 measured after 48 hrs by CLSI M27-A3 protocol based method; format: functional; conditions: ATCC MYA-2310, 48 h
[37] = Selectivity index, ratio of CC50 for human A549 cells to MIC for fluconazole/ITC-susceptible Candida albicans ATCC MYA-2310; format: toxicity; conditions: read-out: Selectivity Index
Nakaseomyces glabratus = experiment: Antifungal activity against Candida glabrata ATCC 2001 measured after 48 hrs by CLSI M27-A3 protocol based method; format: functional; conditions: CBS 138, 48 h
[38] = Selectivity index, ratio of compound concentration showing <20 to <30% hemolysis in mouse RBC to MIC for fluconazole/ITC-resistant Candida albicans ATCC 64124; format: toxicity; conditions: red blood cells (erythrocytes), read-out: Selectivity Index
Candida albicans [39] = experiment: Antifungal activity against fluconazole/ITC-resistant Candida albicans ATCC 90819 measured after 48 hrs by CLSI M27-A3 protocol based method; format: functional; conditions: ATCC 90819, 48 h
Candida albicans [40] = experiment: Antifungal activity against fluconazole/ITC-resistant Candida albicans ATCC 64124 measured after 48 hrs by CLSI M27-A3 protocol based method; format: functional; conditions: ATCC 64124, 48 h
[41] = Hemolytic activity in mouse RBC at 62.5 ug/ml after 1 hr relative to control; format: ADME, cell-based, Erythrocyte; conditions: red blood cells (erythrocytes), read-out: Activity

Voltage-gated inwardly rectifying potassium channel KCNH2, sequence (Q12809 whole entry): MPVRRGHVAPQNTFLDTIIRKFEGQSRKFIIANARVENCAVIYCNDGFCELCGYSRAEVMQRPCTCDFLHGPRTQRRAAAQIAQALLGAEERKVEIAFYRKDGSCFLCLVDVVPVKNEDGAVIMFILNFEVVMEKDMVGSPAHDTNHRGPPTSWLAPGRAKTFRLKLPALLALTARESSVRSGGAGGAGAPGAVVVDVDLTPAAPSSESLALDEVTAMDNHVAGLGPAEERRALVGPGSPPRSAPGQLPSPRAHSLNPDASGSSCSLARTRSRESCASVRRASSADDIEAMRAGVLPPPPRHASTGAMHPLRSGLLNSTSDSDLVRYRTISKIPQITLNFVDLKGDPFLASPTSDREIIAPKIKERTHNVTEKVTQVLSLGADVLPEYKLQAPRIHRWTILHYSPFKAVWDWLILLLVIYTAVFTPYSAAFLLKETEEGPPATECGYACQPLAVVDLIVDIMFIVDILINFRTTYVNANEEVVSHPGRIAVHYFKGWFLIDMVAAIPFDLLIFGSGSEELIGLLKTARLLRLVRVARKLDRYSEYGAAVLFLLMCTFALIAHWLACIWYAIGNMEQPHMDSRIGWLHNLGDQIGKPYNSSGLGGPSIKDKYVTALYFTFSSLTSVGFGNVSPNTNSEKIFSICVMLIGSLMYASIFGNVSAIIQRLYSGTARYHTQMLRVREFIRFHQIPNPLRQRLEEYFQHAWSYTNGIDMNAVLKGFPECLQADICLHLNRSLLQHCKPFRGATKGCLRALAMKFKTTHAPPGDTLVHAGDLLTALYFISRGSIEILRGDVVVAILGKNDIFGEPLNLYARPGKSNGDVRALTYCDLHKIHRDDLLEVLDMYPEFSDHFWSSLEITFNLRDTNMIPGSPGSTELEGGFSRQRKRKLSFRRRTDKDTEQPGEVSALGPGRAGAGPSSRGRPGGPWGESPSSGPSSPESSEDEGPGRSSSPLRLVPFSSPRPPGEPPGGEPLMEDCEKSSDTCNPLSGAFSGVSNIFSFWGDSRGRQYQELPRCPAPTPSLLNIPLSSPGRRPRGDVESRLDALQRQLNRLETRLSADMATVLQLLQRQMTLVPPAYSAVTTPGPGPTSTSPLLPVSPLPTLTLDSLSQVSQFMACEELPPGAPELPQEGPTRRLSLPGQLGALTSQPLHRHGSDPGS

Compound: Fc1ccc(N/N=C/c2ccc(-c3cccc(/C=N/Nc4ccc(F)cc4)c3)cc2)cc1
- hemolysis at 1 h, […] [1]: 0.1%
- selectivity ratio [2]: 8
- MIC (Aspergillus nidulans): 3.9 µg/mL (≈ 9.14 µM)
- selectivity ratio [3]: 8
- selectivity ratio [4]: 1 to 32
- CC50 (A549): > 31 µg/mL
- selectivity ratio [5]: 1 to 32
- MIC (Candida albicans [6]): 15.6 µg/mL (≈ 36.6 µM)
- selectivity ratio [7]: 16
- CC50 (BEAS-2B): > 31 µg/mL
- hemolysis at 1 h, 7.8 ug/ml [8]: 9.5%
- MIC (Candida parapsilosis): 31.3 µg/mL (≈ 73.4 µM)
- selectivity ratio [9]: 1
- Activity (Enterococcus): inactive
- selectivity ratio [10]: 1 to 32
- selectivity ratio [11]: 1 to 32
- MIC (Candida albicans [12]): 3.9 µg/mL (≈ 9.14 µM)
- selectivity ratio [13]: 2
- MIC (Aspergillus flavus): 15.6 µg/mL (≈ 36.6 µM)
- MIC (Candida albicans [14]): 7.8 µg/mL (≈ 18.3 µM)
- IC50 [15]: > 30 µM
- selectivity ratio [16]: 1 to 32
- selectivity ratio [17]: 1 to 32
- hemolysis at 1 h, 15.6 ug/ml ([18]; at 15.6 µg/mL): 9.9%
- hemolysis at 1 h, 0.975 ug/ml [18]: 0%
- MIC (Pichia kudriavzevii): > 31.3 µg/mL
- Activity (Staphylococcus aureus): inactive
- selectivity ratio [19]: 1
- selectivity ratio [20]: 1 to 32
- Activity (Listeria monocytogenes): inactive
- hemolysis at 1 h, 1.95 ug/ml [21]: 6%
- hemolysis at 1 h, 3.9 ug/ml [22]: 4.3%
- selectivity ratio [23]: 1
- selectivity ratio [24]: 2
- MIC (Aspergillus terreus): > 31.3 µg/mL
- selectivity ratio [25]: 4
- selectivity ratio [26]: 1 to 32
- selectivity ratio [27]: 2
- selectivity ratio [28]: 1 to 32
- hemolysis at 1 h, 31.3 ug/ml [29]: 14.4%
- selectivity ratio [30]: 1 to 32
- selectivity ratio [31]: 1 to 32
- selectivity ratio [32]: 1
- selectivity ratio [33]: 1
- selectivity ratio [34]: 1 to 32
- MIC (Candida albicans [35]): 1.95 to 3.9 µg/mL (≈ 4.57 to 9.14 µM)
- MIC (Candida albicans [36]): 7.8 µg/mL (≈ 18.3 µM)
- selectivity ratio [37]: 4
- MIC (Nakaseomyces glabratus): > 31.3 µg/mL
- selectivity ratio [38]: 1 to 32
- MIC (Candida albicans [39]): > 31.3 µg/mL
- MIC (Candida albicans [40]): 15.6 µg/mL (≈ 36.6 µM)
- hemolysis at 1 h, 62.5 ug/ml [41]: 26.1%
